From the supplement of paper PMC10307832

Key:
Experiment in all cases: relative viability (nuclei count vs DMSO), 5 days (fraction); higher = more cells survive
[1] = compound: CC(C)C[C@H](NC(=O)[C@H](Cc1ccccc1)NC(=O)c1cnccn1)B(O)O [Bortezomib] + O=C(CCCCCCC(=O)Nc1ccccc1)NO [Vorinostat] (partner 1 µM)
Procedure, shortened: (§1)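 One day after seeding in 1536-well plates, lung cancer cell lines were dosed by pin tool. Dosing was either single-drug or a fixed anchor-drug dose plus five library-drug doses (not always all listed) in √10 steps. After 5 days, nuclei were stained in one fix-and-stain step and counted on 4× images, and relative viability is the nuclei count of treated wells over that of vehicle wells, given as the median of duplicate plates.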

[2] = compound: CC(C)C[C@H](NC(=O)[C@H](Cc1ccccc1)NC(=O)c1cnccn1)B(O)O [Bortezomib] + CS(=O)(=O)N1CCN(Cc2cc3nc(-c4cccc5[nH]ncc45)nc(N4CCOCC4)c3s2)CC1 [Pictilisib] (partner 1 µM)
Procedure, shortened: as §1

[3] = compound: CC(C)C[C@H](NC(=O)[C@H](Cc1ccccc1)NC(=O)c1cnccn1)B(O)O [Bortezomib] + Cc1cc(Nc2cc(N3CCN(C)CC3)nc(Sc3ccc(NC(=O)C4CC4)cc3)n2)n[nH]1 [Tozasertib] (partner 0.1 µM)
Procedure, shortened: as §1

[4] = compound: CC1=CC(=NN1)NC2=CC(=NC(=N2)/C=C/C3=CC=CC=C3)N4CCN(CC4)C + CC(=O)Nc1cccc(-n2c(=O)n(C3CC3)c(=O)c3c(Nc4ccc(I)cc4F)n(C)c(=O)c(C)c32)c1 [Trametinib] (partner 0.02 µM)
Procedure, shortened: as §1

Row | Cell Line | relative viability ([1]; first compound 0.0002 µM) | relative viability ([1]; first compound 0.000632 µM) | relative viability ([1]; first compound 0.002 µM) | relative viability ([1]; first compound 0.006325 µM) | relative viability ([1]; first compound 0.02 µM) | relative viability ([2]; first compound 0.0002 µM) | relative viability ([2]; first compound 0.000632 µM) | relative viability ([2]; first compound 0.002 µM) | relative viability ([2]; first compound 0.006325 µM) | relative viability ([2]; first compound 0.02 µM) | relative viability ([3]; first compound 0.0002 µM) | relative viability ([3]; first compound 0.000632 µM) | relative viability ([3]; first compound 0.002 µM) | relative viability ([3]; first compound 0.006325 µM) | relative viability ([3]; first compound 0.02 µM) | relative viability ([4]; first compound 0.08 µM) | relative viability ([4]; first compound 0.253 µM) | relative viability ([4]; first compound 0.8 µM) | relative viability ([4]; first compound 2.53 µM) | relative viability ([4]; first compound 8 µM)
1 | HCC-366 | 0.352 | 0.377 | 0.33 | 0.113 | 0.026 | 0.119 | 0.12 | 0.117 | 0.166 | 0.0325 | 0.13 | 0.115 | 0.094 | 0.0548 | 0.0273 | 0.334 | 0.372 | 0.253 | 0.0375 | 0.0236
2 | HCC-827 | 0.802 | 0.883 | 0.799 | 0.814 | 0.182 | 0.772 | 0.956 | 0.984 | 0.82 | 0.235 | 0.418 | 0.447 | 0.419 | 0.12 | 0.0981 | 0.507 | 0.405 | 0.513 | 0.427 | 0.273
3 | HOP-62 | 0.589 | 0.654 | 0.6 | 0.131 | 0.0601 | 0.752 | 0.667 | 0.748 | 0.333 | 0.0568 | 0.354 | 0.391 | 0.292 | 0.0719 | 0.0538 | 0.382 | 0.297 | 0.36 | 0.337 | 0.163
4 | IA-LM | 0.955 | 0.788 | 0.806 | 0.674 | 0.008 | 0.299 | 0.321 | 0.278 | 0.0319 | 0.0054 |  |  |  |  |  |  |  |  |  | 
5 | LC-2-ad | 0.74 | 0.68 | 0.665 | 0.209 | 0.185 | 0.558 |  | 0.486 | 0.0865 | 0.104 | 0.447 | 0.477 | 0.328 | 0.217 | 0.199 | 0.873 | 0.89 | 0.868 | 0.463 | 0.196
6 | LCLC-97TM1 | 0.615 | 0.695 | 0.748 | 0.148 | 0.0598 | 0.177 | 0.178 | 0.195 | 0.132 | 0.207 | 0.289 | 0.204 | 0.25 | 0.131 | 0.14 | 0.186 | 0.142 | 0.209 | 0.182 | 0.0966
7 | LCLC-103H | 0.791 | 0.773 | 0.827 | 0.359 | 0.236 | 0.529 | 0.509 | 0.549 | 0.511 | 0.383 |  | 0.485 | 0.251 | 0.147 | 0.128 | 0.667 | 0.641 | 0.677 | 0.651 | 0.528
8 | LK-2 | 0.401 | 0.416 | 0.323 | 0.173 | 0.195 |  | 0.559 | 0.295 | 0.251 | 0.245 | 0.182 | 0.191 | 0.173 | 0.157 | 0.161 | 0.836 | 0.48 | 0.697 | 0.417 | 0.129
9 | LOU-NH91 | 0.88 | 0.816 | 0.413 | 0.313 | 0.359 | 0.509 | 0.479 | 0.395 | 0.339 | 0.317 | 0.643 | 0.7 | 0.32 | 0.224 | 0.166 | 0.767 | 0.823 | 0.754 | 0.783 | 0.439
10 | LU99A | 0.479 | 0.427 | 0.533 | 0.464 | 0.152 | 0.385 |  | 0.35 | 0.328 | 0.169 | 0.279 | 0.29 | 0.247 | 0.252 | 0.17 | 0.54 | 0.311 | 0.532 | 0.328 | 0.165
11 | LXF-289 | 0.732 | 0.734 | 0.896 | 0.0875 | 0.0888 | 0.829 | 0.81 | 0.717 | 0.07 | 0.0457 | 0.166 | 0.183 | 0.157 | 0.0616 | 0.046 | 0.637 | 0.623 | 0.637 | 0.592 | 0.442
12 | NCI-H23 | 0.603 |  | 0.495 | 0.132 | 0.0977 |  | 0.407 | 0.381 | 0.144 | 0.131 | 0.306 | 0.366 | 0.352 | 0.111 | 0.107 | 0.302 | 0.317 | 0.257 | 0.142 | 0.118
13 | NCI-H522 | 0.824 | 0.818 | 0.976 | 0.446 | 0.334 |  |  |  |  |  | 0.475 | 0.529 | 0.419 | 0.344 | 0.337 | 0.856 | 0.676 | 0.823 | 0.688 | 0.362
14 | NCI-H1299 |  |  |  |  |  | 0.722 | 0.776 | 0.511 | 0.0727 | 0.0315 |  |  |  |  |  |  |  |  |  | 
15 | NCI-H1563 |  |  |  |  |  | 0.68 | 0.622 | 0.655 | 0.538 | 0.486 |  |  |  |  |  |  |  |  |  | 
16 | NCI-H1623 |  |  |  |  |  |  |  |  |  |  | 0.425 | 0.52 | 0.46 | 0.316 | 0.199 |  |  |  |  | 
17 | NCI-H1648 | 0.295 | 0.395 | 0.268 | 0.264 | 0.241 |  |  |  |  |  | 0.439 | 0.396 | 0.262 | 0.453 | 0.257 | 0.47 | 0.412 | 0.497 | 0.435 | 0.316
18 | NCI-H1703 |  |  |  |  |  | 0.259 | 0.208 | 0.146 | 0.128 | 0.121 |  |  |  |  |  |  |  |  |  | 
19 | NCI-H1792 |  |  |  |  |  | 0.29 | 0.21 | 0.192 | 0.306 | 0.175 |  |  |  |  |  | 0.427 | 0.402 | 0.396 | 0.195 | 0.0298
20 | NCI-H2342 | 1.01 | 0.789 | 0.838 | 0.748 | 0.627 |  |  |  |  |  | 0.765 | 0.471 | 0.511 | 0.409 | 0.313 | 1 | 0.869 | 0.958 | 0.962 | 0.602
21 | SW 900 | 0.482 | 0.54 | 0.163 | 0.169 | 0.173 |  |  |  |  |  | 0.522 | 0.544 | 0.184 | 0.103 | 0.14 | 0.957 | 0.625 | 0.839 | 0.215 | 0.0981
